Test results as given in PMC12298883, “Discovery of Cyclopentane-Based Phospholipids as Miltefosine Analogs with Superior Potency and Enhanced Selectivity Against Naegleria fowleri” (Pharmaceuticals, 2025).
Where two headings read alike, the source gives them in different places.

Key:
[1] = test system: N. fowleri trophozoites; experiment: Anti-amoebic viability assay (CellTiter-Blue) with microscopic observation; format: cell-based, Naegleria fowleri; conditions: for Selectivity Index: CC50 of C6 glial cell divided by IC50 of inhibition of N. fowleri; for IC50 / IC90: 48 h, N. fowleri trophozoites, viability; for IC50: mean ± SD of three assays, read-out: IC50 of Inhibition of N. fowleri; for IC90: mean ± SD; for morphological changes of N. fowleri (microscopy): treated trophozoites versus 0.1% DMSO negative control; for Relative Potency to Miltefosine: IC50 of miltefosine divided by IC50 of compound, N. fowleri
Method: (§1) A viability assay was performed to evaluate the inhibitory activity of the tested compounds by determining their IC50 values against N. fowleri, using miltefosine as a reference drug. To assess the selectivity of the tested compounds relative to miltefosine, cytotoxic values that reduced the viability of C6 glial cells by 50% were established.
(§2) N. fowleri Carter NF69 strain (ATCC 30215; American Type Culture Collection, Manassas, VA, USA) was used. Amoeba trophozoites were cultured and maintained in Nelson’s medium containing 5% foetal bovine serum (FBS; Gibco, Grand Island, NY, USA) and 1% penicillin/streptomycin (P/S; Gibco, Grand Island, NY, USA) at 37 °C [56]. C6 rat glial cells (C6 cells; ATCC CCL-107) were cultured in Dulbecco’s Modified Eagle’s Medium (DMEM; Gibco, Grand Island, NY, USA) supplemented with 10% FBS (Gibco, Grand Island, NY, USA) and 1% P/S (Gibco, Grand Island, NY, USA) at 37 °C in a humidified incubator under 5% CO2 atmosphere.
N. fowleri trophozoites (5 × 10^4 cells/well) were seeded in a 96-well microplate (Thermo Fisher Scientific, Waltham, MA, USA) in Nelson’s medium and incubated at 37 °C overnight. N. fowleri trophozoites were treated with 2-fold serial dilutions of tested compounds (from 0 to 200 µM) or miltefosine (150 µM) and incubated at 37 °C for 48 h. The viability of the amoebae was determined using the CellTiter-Blue® Cell viability assay (Promega, Madison, WI, USA). Inhibitory concentration 50 (IC50) and IC90 were calculated by the nonlinear regression method using GraphPad Prism 9.1.0 software (GraphPad Software, San Diego, CA, USA). Amoebae treated with 0.1% DMSO were used as a control, representing 100% cell viability. Morphological changes of the amoebae were observed microscopically.

[2] = test system: N. fowleri trophozoites; experiment: TUNEL assay (DNA fragmentation); format: cell-based, Naegleria fowleri; conditions: at IC90, 48 h; PI counterstain
Method: To further confirm the apoptotic mode of cell death induced by compounds 2a, 3b and 3d in N. fowleri, a TUNEL assay was conducted. This assay detects DNA fragmentation, a hallmark of apoptosis, by incorporating fluorescent dUTP at DNA break sites. […] This difference could reflect variations in the specific molecular pathways targeted by each compound or differences in their cellular uptake or metabolism.
Figure 6 TUNEL assay. DNA fragmentation implying apoptosis was detected by TUNEL (GFP channel, (Ex/Em = 490/525 nm) in the amoebae treated with tested compounds. These amoebae were also counterstained with PI (RFP channel, Ex/Em = 550/650 nm). Miltefosine (MF) was included as a positive reference control. NC, negative controls with 0.1% DMSO treatment. Images were representatives of the cell population in three individual experiments. Size bar: 10 µm.
N. fowleri trophozoites (2 × 10^6 cells/well) were seeded in a 6-well plate (Thermo Fisher Scientific), treated with compounds 2a, 3b or 3d (IC90) and incubated at 37 °C for 48 h. The TUNEL assay was performed by using TUNEL Fluorescein Isothiocyanate (FITC) Assay Kit (Abcam, Cambridge, UK) as described previously. N. fowleri trophozoites treated with 0.01% DMSO was used as an NC. The amoeba treated with miltefosine (IC90) were used as a positive control.

[3] = Cytotoxicity assay for C6 cells (CellTiter-Blue); format: cell-based; conditions: rat, C6 glial cells, viability, mean ± SD
Method: as §1, §2
The potential cytotoxicity of tested compounds and miltefosine in C6 cells was analysed. The cells were seeded in a 96-well microplate (Thermo Fisher Scientific; 2 × 10^4 cells/well), respectively, and incubated overnight until 80% confluent. Serially diluted tested compounds and miltefosine were treated to the cells as described above. Morphological changes of the cells were observed by microscopic examination. Cell viability was determined using the CellTiter-Blue® Cell viability assay (Promega, […], USA). The cytotoxic concentrations 50 (CC50) of tested compounds and miltefosine were calculated using GraphPad Prism 9.1.0 software (GraphPad Software, San Diego, CA, USA). The […] (SI) was determined by the ratio between CC50 and IC50. Cells treated with 0.1% DMSO, which was confirmed not to alter the morphology of the cells by microscopic examination, were used as controls with 100% cell viability.

[4] = test system: N. fowleri trophozoites; experiment: JC-1 mitochondrial membrane potential assay; format: cell-based, Naegleria fowleri; conditions: at IC90, 48 h
Method: To determine whether the apoptotic death of N. fowleri induced by compounds 2a, 3b and 3d is associated with mitochondrial dysfunction, the mitochondrial membrane potential (ΔΨm) was assessed using a JC-1 assay. The potential difference across the membrane in functioning mitochondria leads to the accumulation of cationic lipophilic fluorescent JC-1 molecules, forming red fluorescence (J-aggregate). Mitochondrial dysfunction results in the loss of mitochondrial membrane potential, leading to the transition from J-aggregates to monomers (green fluorescence). […] The absence of green and strong red fluorescence in untreated amoebae indicates healthy, functional mitochondria maintaining their ΔΨm. The shift to predominantly green fluorescence upon treatment with miltefosine, as well as compounds 2a, 3b and 3d, signifies a loss of ΔΨm, a critical early event in the intrinsic apoptotic pathway (Figure 7). Disruption of ΔΨm leads to the release of pro-apoptotic factors from the mitochondria, triggering the caspase cascade and, ultimately cell death. This observation aligns with the previous finding of DNA fragmentation and membrane compromise, further solidifying the apoptotic mechanism of these compounds.
Figure 7 Disruption of mitochondrial functions in N. fowleri. Mitochondrial membrane potential changes. Aggregate form (RFP channel, Ex/Em = 550/650 nm), implying healthy mitochondria, was found in N. fowleri trophozoites treated with 0.1% DMSO (NC), while monomer (GFP channel, Ex/Em = 490/525 nm) indicating the collapse of mitochondrial membrane potential was increased in treated amoebae. Miltefosine (MF) was included as a positive control drug. Images were representatives of the cell population in three individual experiments. Size bar: 10 µm.
The electrochemical gradient changes across the mitochondrial membrane in N. fowleri upon treatment of compounds 2a, 3b and 3d were measured using the JC-1 Mitochondrial Membrane Potential Assay Kit (Abcam, Cambridge, UK). The amoeba trophozoites (5 × 10^4 cells/well) were seeded in a 96-well black/clear bottom plate and incubated with compounds 2a, 3b or 3d (IC90) at 37 °C for 48 h. The JC-1 assay was conducted as described previously. The amoebae treated with Nelson’s medium containing 0.1% DMSO and miltefosine (IC90) were used as negative and positive controls, respectively.

Compound	Selectivity Index [1]	IC50 ([1]; Naegleria fowleri)	IC90 ([1]; Naegleria fowleri)	morphological changes of N. fowleri (microscopy) [1]	DNA fragmentation (TUNEL green fluorescence) [2]	CC50 [3]	mitochondrial membrane potential (ΔΨm), JC-1 [4]	Relative Potency to Miltefosine [1]	fold the potency of trans-configured behenyl derivative 2d ([1]; N. fowleri IC50 ratio versus compound 2d)	IC50 [1]
CCCCCCCCCCCCCO[C@@H]1CCC[C@H]1COP(=O)([O-])OCC[N+](C)(C)C [Compound 2a]	7.53	42 ± 1.32 µM	109 µM	dose-dependent morphological changes	intense green fluorescence, confirming DNA fragmentation	316.6 ± 2.1 µM	loss of ΔΨm	–	–	–
CCCCCCCCCCCCCOC[C@@H]1CCC[C@H]1OP(=O)([O-])OCC[N+](C)(C)C [Compound 3b]	3.90	40.9 ± 1.9 µM	104 µM	dose-dependent morphological changes	intense green fluorescence, confirming DNA fragmentation	159.5 ± 0.87 µM	loss of ΔΨm	–	–	–
CCCCCCCCCCCCCCCCCCCCCCOC[C@@H]1CCC[C@H]1OP(=O)([O-])OCC[N+](C)(C)C [Compound 3d]	3.49	24.3 ± 1.1 µM	187 µM	dose-dependent morphological changes	intense green fluorescence, confirming DNA fragmentation	84.9 ± 1.29 µM	loss of ΔΨm	6.03 fold	2.29 fold	–
CCCCCCCCCCCCCCCCOP(=O)([O-])OCC[N+](C)(C)C [Miltefosine]	~1.08	146.44 ± 0.12 µM	> 200 µM	–	intense green fluorescence, confirming DNA fragmentation	157.8 ± 1.49 µM	loss of ΔΨm	1.00 fold	–	146.53 ± 0.12 µM
